Data on two compounds can be found in patent US4349672A, “Cephalosporin derivatives” (Hoffmann-La Roche Inc., priority 1979, dated 1982).

Structures can show the parent of a compound that is named as a salt. Some results are limits rather than exact numbers.

What all share (assay): Activity in vitro: minimum inhibitory concentration
Holding throughout (type): cell-based

For one assay, the system named is Acinetobacter anitratus. Particulars: Acinetobacter calcoaceticus, gram negative. The source says: (§1) Activity in vitro: Minimum inhibitory concentration (μg/ml)
In the next assay the test system is Citrobacter freundii.
Excerpt: as §1

A further assay relates to Enterobacter aerogenes. The following applies: Klebsiella aerogenes.
Excerpt: as §1

The test system of the next assay is Enterobacter cloacae.
Excerpt: as §1

Another assay deals with Escherichia coli.
Excerpt: as §1

Another assay has as its system Klebsiella pneumoniae.
Excerpt: as §1

A further assay deals with Proteus inconstans. Particulars: Providencia alcalifaciens, gram negative.
Excerpt: as §1

The next assay has as its system Proteus mirabilis.
Excerpt: as §1

In the next assay the test system is Proteus rettgeri. The following applies: Providencia rettgeri, gram negative.
Excerpt: as §1

In the next assay the test system is Proteus vulgaris.
Excerpt: as §1

In a further assay the test system is Serratia marcescens.
Excerpt: as §1

The subject of another assay is Streptococcus pyogenes. The following applies: gram positive.
Excerpt: as §1

[1] abbreviates: Citrobacter freundii Strain 1, gram negative.
The mark [2] stands for this setting: Citrobacter freundii Strain 2, gram negative.
[3] abbreviates: Enterobacter aerogenes Strain 1, gram negative.
Setting [4] is: Enterobacter aerogenes Strain 2, gram negative.
Where [5] appears, read: Enterobacter cloacae Strain 1, gram negative.
[6] abbreviates: Enterobacter cloacae Strain 2, gram negative.
Where [7] appears, read: Escherichia coli Strain 1, gram negative.
The mark [8] stands for this setting: Escherichia coli Strain 2, gram negative.
The mark [9] stands for this setting: Escherichia coli Strain 3, gram negative.
Where [10] appears, read: Escherichia coli Strain 4, gram negative.
[11] abbreviates: Klebsiella pneumoniae Strain 1, gram negative.
[12] abbreviates: Klebsiella pneumoniae Strain 2, gram negative.
The mark [13] stands for this setting: Klebsiella pneumoniae Strain 3, gram negative.
[14] abbreviates: Proteus mirabilis Strain 1, gram negative.
The mark [15] stands for this setting: Proteus mirabilis Strain 2, gram negative.
[16] abbreviates: Proteus vulgaris Strain 1, gram negative.
Setting [17] is: Proteus vulgaris Strain 2, gram negative.
Setting [18] is: Proteus vulgaris Strain 3, gram negative.
[19] abbreviates: Serratia marcescens Strain 1, gram negative.
[20] abbreviates: Serratia marcescens Strain 2, gram negative.

Usually MIC stands for the lowest concentration that inhibits growth of the organism. On to `CO/N=C(\C(=O)N[C@@H]1C(=O)N2C(C(=O)O)=C(CSc3nc(=O)c(O)nn3C)C[S@+]([O-])[C@H]12)c1csc(N)n1` [Derivative A, disodium salt of (6R,7R)-7-[2-(2-amino-4-thiazolyl)-2-[(Z)-methoxyimino]acetamido]-3-[[(2,5-dihydro-6-hydroxy-2-methyl-5-oxo-as-triazin-3-yl)thio]methyl]-8-oxo-5-thia-1-azabicyclo[4.2.0]oct-2-ene-2-carboxylic acid 5-(s)-oxide], for which the MIC in the assay with Acinetobacter anitratus was 25 µg/mL; with Citrobacter freundii (setting [1]) it was 0.19 µg/mL; in the assay with Citrobacter freundii (setting [2]) it was 0.05 µg/mL; in the assay on Enterobacter aerogenes (setting [3]) it was 0.19 µg/mL; against Enterobacter aerogenes (setting [4]) it was 0.1 µg/mL; in the assay with Enterobacter cloacae (setting [5]), 3.1 µg/mL. Further, the MIC with Enterobacter cloacae (setting [6]) is 0.19 µg/mL; against Escherichia coli (setting [7]), 0.025 µg/mL; in the assay on Escherichia coli (setting [8]) it was 0.19 µg/mL; in the assay on Escherichia coli (setting [9]), 0.1 µg/mL; against Escherichia coli (setting [10]), 0.1 µg/mL; against Klebsiella pneumoniae (setting [11]), 0.1 µg/mL. The MIC against Klebsiella pneumoniae (setting [12]) was 0.025 µg/mL; in the assay with Klebsiella pneumoniae (setting [13]) it was 0.1 µg/mL; against Proteus inconstans it was at most 0.006 µg/mL; against Proteus mirabilis (setting [14]), 0.025 µg/mL; against Proteus mirabilis (setting [15]) it was 0.39 µg/mL; in the assay on Proteus rettgeri it was at most 0.006 µg/mL. Also, the MIC was 0.1 µg/mL against Proteus vulgaris (setting [16]); 0.1 µg/mL against Proteus vulgaris (setting [17]); 0.05 µg/mL against Proteus vulgaris (setting [18]); 0.39 µg/mL in the assay on Serratia marcescens (setting [19]); 0.19 µg/mL in the assay on Serratia marcescens (setting [20]); 1.6 µg/mL in the assay on Streptococcus pyogenes.

Regarding `CO/N=C(\C(=O)N[C@@H]1C(=O)N2C(C(=O)O)=C(CSc3nc(=O)c(O)nn3C)CS(=O)(=O)[C@H]12)c1csc(N)n1` [Derivative B, disodium salt of (6R,7R)-7-[2-(2-amino-4-thiazolyl)-2-[(Z)-methoxyimino]acetamido]-3-[[(2,5-dihydro-6-hydroxy-2-methyl-5-oxo-as-triazin-3-yl)thio]methyl]-8-oxo-5-thia-1-azabicyclo[4.2.0]oct-2-ene-2-carboxylic acid 5,5-dioxide], the MIC in the assay with Acinetobacter anitratus is 100 µg/mL; in the assay on Citrobacter freundii (setting [1]) it was 0.19 µg/mL; against Citrobacter freundii (setting [2]) it was 0.19 µg/mL; with Enterobacter aerogenes (setting [3]) it was 0.39 µg/mL; with Enterobacter aerogenes (setting [4]), 0.1 µg/mL; against Enterobacter cloacae (setting [5]), 6.3 µg/mL. Besides, the MIC in the assay on Enterobacter cloacae (setting [6]) is 0.39 µg/mL; in the assay on Escherichia coli (setting [7]) it was 0.05 µg/mL; with Escherichia coli (setting [8]) it was 0.39 µg/mL; against Escherichia coli (setting [9]), 0.19 µg/mL; in the assay on Escherichia coli (setting [10]), 0.39 µg/mL; in the assay with Klebsiella pneumoniae (setting [11]), 0.39 µg/mL. In addition, the MIC with Klebsiella pneumoniae (setting [12]) was found to be 0.19 µg/mL; with Klebsiella pneumoniae (setting [13]), 0.19 µg/mL; with Proteus inconstans, 0.025 µg/mL; in the assay on Proteus mirabilis (setting [14]) it was 0.1 µg/mL; in the assay on Proteus mirabilis (setting [15]), 0.78 µg/mL; in the assay with Proteus rettgeri, 0.05 µg/mL. The MIC amounted to 0.39 µg/mL in the assay on Proteus vulgaris (setting [16]); 0.19 µg/mL in the assay on Proteus vulgaris (setting [17]); 0.19 µg/mL against Proteus vulgaris (setting [18]); 1.6 µg/mL with Serratia marcescens (setting [19]); 0.78 µg/mL in the assay with Serratia marcescens (setting [20]); 3.1 µg/mL against Streptococcus pyogenes.
